Data as given in US4115385A, “Antibacterial 3-(5-tetrazolyl) penam compounds” (Pfizer Inc., priority 1977, dated 1978).
In brackets after ≈: the same amount, converted by molar mass.

tested on: Streptococcus pyogenes; experiment: In vitro minimum inhibitory concentration (MIC) vs. Strep. pyogenes; assay type: cell-based; conditions: Streptococcus pyogenes, read-out: MIC vs. Strep. pyogenes
Method: The antibacterial penam compounds of the instant invention show activity against a wide variety of gram-positive and gram-negative bacteria. […] The broth is inoculated with the bacterial culture, and with the test antibiotic, and then it is incubated overnight. On the next day, the test is read visually. The minimum inhibitory concentration (MIC) is the lowest concentration of antibiotic which prevents turbidity, i.e., which prevents growth of the microorganism. In vitro activities of several of the penam compounds of the invention are presented later in this specification.
In Table II, the minimum inhibitory concentrations (MIC's) of compounds of formula I, wherein R^2 is hydrogen, against a strain of Streptococcus pyogenes, are reported; and in Table III, minimum inhibitory concentrations of compounds of formula I, wherein R^2 is hydrogen, against a strain of Staphylococcus aureus, are presented. Because of the tautomeric nature of such tetrazole derivatives, referred to hereinbefore,each of the preparations tested also contains some of the corresponding compound of formula II, wherein R^3 is hydrogen.

SMILES | MIC
CC1(C)S[C@@H]2[C@H](NC(=O)[C@H](NC(=O)CNC(=O)NC(=N)Cc3ccc(Cl)cc3)c3ccccc3)C(=O)N2[C@H]1c1nnn[nH]1 | < 0.1 µg/mL
CC1(C)S[C@@H]2[C@H](NC(=O)[C@H](NC(=O)NC(=O)C34CC5CC(CC(C5)C3)C4)c3ccccc3)C(=O)N2[C@H]1c1nn[nH]n1 | < 0.1 µg/mL
CC1(C)S[C@@H]2[C@H](NC(=O)[C@H](NC(=O)NC(=O)c3cccnc3)c3ccccc3)C(=O)N2[C@H]1c1nn[nH]n1 | 0.1 µg/mL (≈ 0.192 µM)
CC1(C)S[C@@H]2[C@H](NC(=O)[C@H](NC(=O)NC(=O)c3cc(Br)cc(Br)c3)c3ccccc3)C(=O)N2[C@H]1c1nn[nH]n1 | < 0.1 µg/mL
CC1(C)S[C@@H]2[C@H](NC(=O)[C@H](NC(=O)NC(=O)C3CC3)c3ccccc3)C(=O)N2[C@H]1c1nn[nH]n1 | < 0.1 µg/mL
COc1ccc(C(=N)NC(=O)NCC(=O)N[C@@H]2C(=O)N3[C@@H]2SC(C)(C)[C@@H]3c2nnn[nH]2)cc1 | 0.1 µg/mL (≈ 0.211 µM)
CC1(C)S[C@@H]2[C@H](NC(=O)[C@H](NC(=O)CSc3nc4ccccc4[nH]3)c3ccccc3)C(=O)N2[C@H]1c1nn[nH]n1 | < 0.1 µg/mL
CC1(C)S[C@@H]2[C@H](NC(=O)[C@H](NC(=O)CNC(=N)c3nc4ccccc4[nH]3)c3ccccc3)C(=O)N2[C@H]1c1nnn[nH]1 | < 0.1 µg/mL
CC1(C)S[C@@H]2[C@H](NC(=O)[C@H](NC(=O)CNC(=N)c3nc4ccccc4s3)c3ccccc3)C(=O)N2[C@H]1c1nnn[nH]1 | < 0.1 µg/mL
CC1(C)S[C@@H]2[C@H](NC(=O)[C@H](NC(=O)Cc3ccco3)c3ccccc3)C(=O)N2[C@H]1c1nnn[nH]1 | < 0.1 µg/mL
CC1(C)S[C@@H]2[C@H](NC(=O)[C@H](NC(=O)CNC(=N)c3cnc4ccccc4n3)c3ccccc3)C(=O)N2[C@H]1c1nnn[nH]1 | 0.1 µg/mL (≈ 0.171 µM)
CC1(C)S[C@@H]2[C@H](NC(=O)[C@H](NC(=O)Cc3cccs3)c3ccccc3)C(=O)N2[C@H]1c1nnn[nH]1 | 0.1 µg/mL (≈ 0.201 µM)
CC1(C)S[C@@H]2[C@H](NC(=O)[C@H](NC(=O)CNC(=O)NC(=N)NCc3ccccc3)c3ccccc3)C(=O)N2[C@H]1c1nn[nH]n1 | 0.1 µg/mL (≈ 0.165 µM)
CCNC(=N)NC(=O)NCC(=O)N[C@@H](C(=O)N[C@@H]1C(=O)N2[C@@H]1SC(C)(C)[C@@H]2c1nn[nH]n1)c1ccccc1 | < 0.1 µg/mL
CNC(=N)NC(=O)NCC(=O)N[C@@H](C(=O)N[C@@H]1C(=O)N2[C@@H]1SC(C)(C)[C@@H]2c1nn[nH]n1)c1ccccc1 | < 0.1 µg/mL
CC1(C)S[C@@H]2[C@H](NC(=O)[C@H](NC(=O)CNC(=O)NC(=O)c3ccccc3)c3ccccc3)C(=O)N2[C@H]1c1nnn[nH]1 | < 0.1 µg/mL
CC1(C)S[C@@H]2[C@H](NC(=O)[C@H](NC(=O)CNC(=N)c3cc(I)cc(C#N)c3)c3ccccc3)C(=O)N2[C@H]1c1nnn[nH]1 | < 0.1 µg/mL
CNC(=O)NCC(=O)N[C@@H](C(=O)N[C@@H]1C(=O)N2[C@@H]1SC(C)(C)[C@@H]2c1nnn[nH]1)c1ccccc1 | < 0.1 µg/mL
CC1(C)S[C@@H]2[C@H](NC(=O)[C@H](NC(=O)CNC(=O)Nc3ccccc3)c3ccccc3)C(=O)N2[C@H]1c1nnn[nH]1 | < 0.1 µg/mL
COc1ccc(CC(=O)N[C@@H](C(=O)N[C@@H]2C(=O)N3[C@@H]2SC(C)(C)[C@@H]3c2nnn[nH]2)c2ccccc2)cc1 | 0.1 µg/mL (≈ 0.192 µM)
CC1(C)S[C@@H]2[C@H](NC(=O)[C@H](NC(=O)CSC3=NC(=O)CN3)c3ccccc3)C(=O)N2[C@H]1c1nn[nH]n1 | 0.1 µg/mL (≈ 0.189 µM)

SMILES | MIC
CC1(C)S[C@@H]2[C@H](NC(=O)[C@H](NC(=O)CNC(=N)c3cc[n+]([O-])cc3)c3ccccc3)C(=O)N2[C@H]1c1nnn[nH]1 | < 0.1 µg/mL
CNC(=N)NCC(=O)N[C@@H](C(=O)N[C@@H]1C(=O)N2[C@@H]1SC(C)(C)[C@@H]2c1nn[nH]n1)c1ccccc1 | < 0.1 µg/mL
CC(=O)NCC(=O)N[C@@H](C(=O)N[C@@H]1C(=O)N2[C@@H]1SC(C)(C)[C@@H]2c1nn[nH]n1)c1ccccc1 | < 0.1 µg/mL
CC1(C)S[C@@H]2[C@H](NC(=O)[C@H](NC(=O)CNS(=O)(=O)Cc3ccccc3)c3ccccc3)C(=O)N2[C@H]1c1nn[nH]n1 | < 0.1 µg/mL
CC1(C)S[C@@H]2[C@H](NC(=O)[C@H](NC(=O)CNS(=O)(=O)c3ccccc3)c3ccccc3)C(=O)N2[C@H]1c1nn[nH]n1 | < 0.1 µg/mL
CCCC(=O)NCC(=O)N[C@@H](C(=O)N[C@@H]1C(=O)N2[C@@H]1SC(C)(C)[C@@H]2c1nnn[nH]1)c1ccccc1 | < 0.1 µg/mL
CCOC(=O)CC(=O)N[C@@H](C(=O)N[C@@H]1C(=O)N2[C@@H]1SC(C)(C)[C@@H]2c1nnn[nH]1)c1ccccc1 | < 0.1 µg/mL
CCOC(=O)NCC(=O)N[C@@H](C(=O)N[C@@H]1C(=O)N2[C@@H]1SC(C)(C)[C@@H]2c1nnn[nH]1)c1ccccc1 | < 0.1 µg/mL
CCSCC(=O)N[C@@H](C(=O)N[C@@H]1C(=O)N2[C@@H]1SC(C)(C)[C@@H]2c1nnn[nH]1)c1ccccc1 | < 0.1 µg/mL
CC1(C)S[C@@H]2[C@H](NC(=O)[C@H](NC(=O)CNC(=N)N)c3ccccc3)C(=O)N2[C@H]1c1nn[nH]n1 | < 0.1 µg/mL
CC1(C)S[C@@H]2[C@H](NC(=O)[C@H](NC(=O)CNC(=N)c3cccc(C(N)=O)c3)c3ccccc3)C(=O)N2[C@H]1c1nnn[nH]1 | < 0.1 µg/mL
CC1(C)S[C@@H]2[C@H](NC(=O)[C@H](NC(=O)CNC(=N)c3cccc(S(N)(=O)=O)c3)c3ccccc3)C(=O)N2[C@H]1c1nnn[nH]1 | < 0.1 µg/mL
CC1(C)S[C@@H]2[C@H](NC(=O)[C@H](NC(=O)CNS(C)(=O)=O)c3ccccc3)C(=O)N2[C@H]1c1nn[nH]n1 | < 0.1 µg/mL
CC1(C)S[C@@H]2[C@H](NC(=O)[C@H](NC(=O)CNC(=O)c3ccc(Cl)cc3)c3ccccc3)C(=O)N2[C@H]1c1nnn[nH]1 | 0.1 µg/mL (≈ 0.176 µM)
COc1ccc(C(=O)NCC(=O)N[C@@H](C(=O)N[C@@H]2C(=O)N3[C@@H]2SC(C)(C)[C@@H]3c2nnn[nH]2)c2ccccc2)cc1 | 0.1 µg/mL (≈ 0.177 µM)
CC1(C)S[C@@H]2[C@H](NC(=O)[C@H](NC(=O)CNC(=N)c3ccc([N+](=O)[O-])cc3)c3ccccc3)C(=O)N2[C@H]1c1nnn[nH]1 | < 0.1 µg/mL
CC1(C)S[C@@H]2[C@H](NC(=O)[C@H](NC(=O)CNC(=O)c3ccc([N+](=O)[O-])cc3)c3ccccc3)C(=O)N2[C@H]1c1nnn[nH]1 | < 0.1 µg/mL
CC1(C)S[C@@H]2[C@H](NC(=O)[C@H](NC(=O)CSc3ccccc3)c3ccccc3)C(=O)N2[C@H]1c1nnn[nH]1 | < 0.1 µg/mL
CCC(=O)NCC(=O)N[C@@H](C(=O)N[C@@H]1C(=O)N2[C@@H]1SC(C)(C)[C@@H]2c1nn[nH]n1)c1ccccc1 | < 0.1 µg/mL
CC1(C)S[C@@H]2[C@H](NC(=O)[C@H](NC(=O)c3ccc[nH]3)c3ccccc3)C(=O)N2[C@H]1c1nnn[nH]1 | < 0.1 µg/mL
CC1(C)S[C@@H]2[C@H](NC(=O)[C@H](NC(=O)c3cccs3)c3ccccc3)C(=O)N2[C@H]1c1nnn[nH]1 | < 0.1 µg/mL

SMILES | MIC
CC1(C)S[C@@H]2[C@H](NC(=O)[C@H](NC(=O)CCNC(=O)c3ccco3)c3ccccc3)C(=O)N2[C@H]1c1nnn[nH]1 | < 0.1 µg/mL
CC1(C)S[C@@H]2[C@H](NC(=O)[C@H](NC(=O)NC(=O)Cc3ccccc3)c3ccccc3)C(=O)N2[C@H]1c1nn[nH]n1 | < 0.1 µg/mL
CC1(C)S[C@@H]2[C@H](NC(=O)[C@H](NC(=O)CCNC(=N)c3cccs3)c3ccccc3)C(=O)N2[C@H]1c1nnn[nH]1 | < 0.1 µg/mL
CC1(C)S[C@@H]2[C@H](NC(=O)[C@H](NC(=O)CCNC(=O)c3cccc(Cl)c3)c3ccccc3)C(=O)N2[C@H]1c1nnn[nH]1 | < 0.1 µg/mL
Cc1cc(C(=O)NC(=O)N[C@@H](C(=O)N[C@@H]2C(=O)N3[C@@H]2SC(C)(C)[C@@H]3c2nn[nH]n2)c2ccccc2)on1 | < 0.1 µg/mL
CNC(=O)NCCC(=O)N[C@@H](C(=O)N[C@@H]1C(=O)N2[C@@H]1SC(C)(C)[C@@H]2c1nnn[nH]1)c1ccccc1 | < 0.1 µg/mL
CC1(C)S[C@@H]2[C@H](NC(=O)[C@H](NC(=O)CCNC(=N)c3cc(Br)cc(Br)c3)c3ccccc3)C(=O)N2[C@H]1c1nnn[nH]1 | < 0.1 µg/mL
CC1(C)S[C@@H]2[C@H](NC(=O)[C@H](NC(=O)CCNC(=O)c3ccc(Cl)cc3)c3ccccc3)C(=O)N2[C@H]1c1nnn[nH]1 | < 0.1 µg/mL
CC1(C)S[C@@H]2[C@H](NC(=O)[C@H](NC(=O)CCNC(=N)c3ccncc3)c3ccccc3)C(=O)N2[C@H]1c1nnn[nH]1 | < 0.1 µg/mL
CC1(C)S[C@@H]2[C@H](NC(=O)[C@H](NC(=O)CCC(=N)N)c3ccccc3)C(=O)N2[C@H]1c1nn[nH]n1 | < 0.1 µg/mL
CC1(C)S[C@@H]2[C@H](NC(=O)[C@H](NC(=O)Nc3ccc(Cl)cc3)c3ccc(O)cc3)C(=O)N2[C@H]1c1nnn[nH]1 | < 0.1 µg/mL
CC1(C)S[C@@H]2[C@H](NC(=O)[C@H](NC(=O)Nc3ccc(Cl)cc3)c3ccccc3)C(=O)N2[C@H]1c1nnn[nH]1 | < 0.1 µg/mL
COc1ccc(NC(=O)N[C@@H](C(=O)N[C@@H]2C(=O)N3[C@@H]2SC(C)(C)[C@@H]3c2nnn[nH]2)c2ccc(O)cc2)cc1 | < 0.1 µg/mL
COc1ccc(NC(=O)N[C@@H](C(=O)N[C@@H]2C(=O)N3[C@@H]2SC(C)(C)[C@@H]3c2nnn[nH]2)c2ccccc2)cc1 | < 0.1 µg/mL
CC(=N)NCCC(=O)N[C@@H](C(=O)N[C@@H]1C(=O)N2[C@@H]1SC(C)(C)[C@@H]2c1nnn[nH]1)c1ccccc1 | < 0.1 µg/mL
CC(=O)NCCC(=O)N[C@@H](C(=O)N[C@@H]1C(=O)N2[C@@H]1SC(C)(C)[C@@H]2c1nnn[nH]1)c1ccccc1 | < 0.1 µg/mL
CC1(C)S[C@@H]2[C@H](NC(=O)[C@H](NC(=O)CCNC(=O)c3ccccc3)c3ccccc3)C(=O)N2[C@H]1c1nnn[nH]1 | < 0.1 µg/mL
CC1(C)S[C@@H]2[C@H](NC(=O)[C@H](NC(=O)c3cccnc3)c3ccccc3)C(=O)N2[C@H]1c1nnn[nH]1 | < 0.1 µg/mL
CC1(C)S[C@@H]2[C@H](NC(=O)[C@H](NC(=O)OCc3ccccc3)c3ccccc3)C(=O)N2[C@H]1c1nnn[nH]1 | < 0.1 µg/mL
CCOC(=O)C(=O)N[C@@H](C(=O)N[C@@H]1C(=O)N2[C@@H]1SC(C)(C)[C@@H]2c1nnn[nH]1)c1ccccc1 | < 0.1 µg/mL
